Laboratory results from PMC9503112, “Synthesis, Molecular Docking, In Vitro and In Vivo Studies of Novel Dimorpholinoquinazoline-Based Potential Inhibitors of PI3K/Akt/mTOR Pathway” (International Journal of Molecular Sciences, 2022).
Where “and” joins values, the source holds several entries; their conditions need not be identical. Equal entries are not always repeated. Entries after “also recorded” stand apart in the source; their conditions may differ.

Key:
Solubility = format: physicochemical
[1] = test system: colorectal murine tumor Colon26; experiment: In vivo tumor growth; design: species or system BALB/c mice
Procedure: Murine colorectal CT26 (ATCC, CRL-2639) adenocarcinoma tumor cell line was used in the study. Cells were grown in RPMI-1640 supplemented with 10% fetal calf serum (FCS) and pen-strep-glut (all from PanEco, Moscow, Russian Federation). Cells were passaged by trypsinization using Trypsin/EDTA solution (PanEco, Moscow, Russian Federation) twice a week. Cell authentication was not performed by the authors.
Six- to eight-week-old female BALB/c mice were obtained from the Pushchino branch of Shemyakin-Ovchinnikov Institute of Bioorganic Chemistry RAS. All studies were conducted in an AAALAC accredited facility in compliance with the PHS Guidelines for the Care and Use of Animals in Research, protocol #325 from 24.05.2021
Colon-26 cells (10^5) were subcutaneously (s.c.) injected into the depilated flanks of 6-week-old female BALB/c mice. Mice (n = 20) were divided in three groups: control mice (n = 8) were injected with vehicle only; mice from group 1 (n = 6) and 2 (n = 6) were treated with 50 µL of 1 mM 7c injected s.c. near the tumors. […] The perpendicular diameter of each tumor was measured twice a week, and tumor volume was calculated using the following formula: tumor volume (mm^3) = a × b^2 × 0.5, where a represents the longest diameter, b represents the shortest diameter, and 0.5 is a constant used to calculate the volume of an ellipsoid. […]

keratinocytes HaCaT = experiment: Antiproliferative activity, MTT assay; format: cell-based; settings: Homo sapiens, 72 h, standard deviations within 50%
Procedure: (§1) Human breast cancer MCF7, MDA-MB-231, SkBr-3 (purchased from the ATCC collection), human keratinocytes HaCaT, murine fibroblasts L929 and macrophages J774 cells (Collection of Shemyakin-Ovchinnikov Institute of Bioorganic Chemistry RAS) were cultured in standard DMEM or RPMI-1640 medium (ThermoScientific, Waltham, MA, USA) supplemented with 10% fetal bovine serum (FBS, Cytiva, Marlborough, MA, USA) at 37 °C, 5 % CO2 and 80–85% humidity (NuAir CO2 incubator). The cell growth was evaluated by MTT (3-[4,5-dimethylthiazol-2-yl]-2,5-diphenyltetrazolium bromide) test. Cells were seeded at a density of 5 × 10^3 cells per well in 96-well flat-bottomed plates (TPP). The compounds were dissolved in DMSO (AppliChem) to 10 mM before the experiments, and then the resulting solutions were diluted by the medium to the required concentrations. Solutions of the tested compounds with different concentrations in 100 μL of the medium were added and the cells were grown for 72 h. MTT (10 μL/well, 5 mg/mL) was added for the final 3 h. The formazan purple crystals were dissolved in DMSO (100 μL per well). The absorbance of solutions was measured at 540 nm with a MultiScan reader (ThermoFisher). Results were analyzed by Excel package (Microsoft). The inhibition of proliferation (inhibitory index) was calculated as [1–(ODexperiment/ODcontrol)], where OD was MTT optical density. IC50 (Table 1) was determined as the concentration giving 50% of inhibition in the comparison with it […].

MCF7 = experiment: Antiproliferative activity, MTT assay; format: cell-based; settings: Homo sapiens, 72 h, standard deviations within 50%
Procedure: as §1

MDA-MB-231 = experiment: Antiproliferative activity, MTT assay; format: cell-based, human
Procedure: as §1

SkBr-3 cells = experiment: Cell cycle analysis (PI-stained DNA, flow cytometry); format: cell-based, human
Procedure: The cell cycle was analyzed using PI-stained DNA. Cells from the compounds 7 treated cultures were collected at 24, 48, and 72 h, trypsinized, washed in ice-cold PBS, fixed by the addition of 70% ethanol and left for 2 h at −20 °C. Thereafter, the cells were washed twice in PBS, stained with 50 μg/mL of propidium iodide (Sigma, Merck KGaA, Darmstadt, Germany) in PBS, treated with 10 µg/mL of RNAse and analyzed by flow cytometry using FACScan device (BD, USA). A total of 2000 events were collected. The results were analyzed using FlowJo 10 software (BD, Franklin Lakes, NJ, USA).

PARP1 in MCF7 cells = experiment: Immunoblotting of PARP1 cleavage; format: cell-based, human
Procedure: (§2) MCF7 cells were seeded onto 100 mm dishes (Corning) and cultivated for 24 h. Compound 7c was added at different concentrations while the reference compound wortmannin (Selleckchem, Houston, TX, USA) was used at 500 nM. The cells were harvested after 72 h of growth with the compounds. To prepare cell extracts, MCF7 cells were twice washed in phosphate buffer and incubated for 10 min on ice in the modified lysis buffer containing 50 mM Tris-HCl, pH 7.5, 0.5% Igepal CA-630, 150 mM NaCl, 1 mM EDTA, 1 mM DTT, 1 mM PMSF, 0.1 mM sodium orthovanadate and aprotinin, leupeptin, pepstatin (1 µg/mL each). The protein content was determined by the Bradford method. Cell lysates were separated in 10% SDS-PAGE under reducing conditions, transferred to a nitrocellulose membrane (GE HealthCare, Chicago, IL, USA), and processed according to a standard protocol. To prevent nonspecific absorption, the membranes were treated with 5% nonfat milk solution in TBS buffer (20 mM Tris, 500 mM NaCl, pH 7.5) with 0.1% Tween-20 and then incubated with primary antibodies (Cell Signaling Technology, Danvers, MA, USA) overnight at 4 °C. […] Signals were detected using the ECL reagent using the ImageQuant LAS4000 system (GE HealthCare, Chicago, IL, USA).
(§3) The signals of phospho-proteins to total ones were calculated using the ImageJ program from inverted images of the bands.

[2] = test system: PI3K/Akt/mTOR signaling pathway in MCF7 cells; experiment: Immunoblotting of PI3K/Akt/mTOR phosphorylation; format: cell-based, human
Procedure: as §2, §3

fibroblasts L929 = experiment: Antiproliferative activity, MTT assay; format: cell-based, murine; settings: Mus musculus, 72 h, standard deviations within 50%
Procedure: as §1

macrophages J774 = experiment: Antiproliferative activity, MTT assay; format: cell-based, murine; settings: Mus musculus, 72 h, standard deviations within 50%
Procedure: as §1

## O=C(NCCc1cccnc1)Nc1ccc(-c2ccc3c(N4CCOCC4)nc(N4CCOCC4)nc3c2)cc1 [Compound 7c, 1-(4-(2,4-Dimorpholinoquinazolin-7-yl)phenyl)-3-(2-(pyridin-3-yl)ethyl)urea]
Solubility
  Solubility: soluble only in DMSO
[1]; 50 µL of 1 mM 7c s.c. around tumor, from 400–500 mm^3, three injections
  Effect on tumor growth, late treatment of large tumors (group 2): less evident but still significant; also recorded: tumor destruction
[1]; 50 µL of 1 mM 7c s.c. near tumor, once in 3 days, from 2–8 mm^3, post three injections, p < 0.05
  Effect on tumor growth, early treatment (group 1): significant
Keratinocytes HaCaT
  IC50: 6 µM
MCF7
  IC50: 0.2 µM
MDA-MB-231; Homo sapiens, MDA-MB-231, MTT, 72 h, standard deviations within 50%
  IC50: 1 µM
MDA-MB-231; MDA-MB-231 versus MCF7
  Toxicity for MDA-MB-231 (wild type PI3K) lower than for MCF7 (mutant PI3K): 5 times
SkBr-3 cells
  Concentration above which all cells died: higher than 10 μM
  Concentration below which no changes in the cell cycle were found: below 1 μM
PARP1 in MCF7 cells
  Concentration triggering PARP-1 cleavage: 62 to 125 nM
[2]
  Concentration inhibiting phosphorylation of Akt, mTOR, S6K (PI3K/Akt/mTOR proteins): 125 to 250 nM and 250 to 500 nM
Fibroblasts L929
  IC50: 3 µM
Macrophages J774
  IC50: 0.4 µM
